Measured values from US20060009425A1, “Oral formulations of paricalcitol” (priority 2004, published 2006).
Read-outs that look alike come from different tables or passages of the source.

How the values were obtained:
[1] = Bioavailability of capsule vs intravenous formulation, end-stage CKD on continuous peritoneal dialysis (Example 9); type: in vivo; details: human, plasma, 0.24 μg/kg; for half-life: CPD, read-out: harmonic mean of the terminal elimination half-life (converted)
Protocol: Methodology: This was a Phase I, open-label, randomized, single-dose, two-period, crossover, nonfasting study. Subjects were randomized into two sequence groups of
Formulations A and B. The two nonfasting study administrations were: […]
The strengths of the capsule formulations were 0.5, 1, 2 or 4 μg.
The intravenous formulation contained 2-10 micrograms/milliliter of paricalcitol, 30% (v/v) propylene glycol, 20% (v/v) ethanol and 50% (v/v) water.
Both formulations were administered immediately after CPD exchange in the morning, 30 minutes after breakfast was served. Phosphate binders, commonly used in the management of end-stage renal disease, were withheld 8 hours prior to and 2 hours after the drug administration. A washout interval of at least 7 days separated the doses of the two study periods.
Plasma concentrations of paricalcitol were determined using a validated HPLC-tandem mass spectrometric assay method at Abbott Laboratories, Abbott Park, Ill. The lower limit of quantitation of paricalcitol was 0.02 ng/mL using 0.6 mL of plasma.
Pharmacokinetic: The pharmacokinetic parameter values of paricalcitol were estimated using noncompartmental methods. These included: Cmax, t1/2, AUC0-t, AUC0-∞, CL, CL/F, Tmax, Vdβ and Vdβ/F, as described in the last example.
Statistical Methods: An analysis of variance (ANOVA) was performed for β and the logarithms of Cmax, AUC0-t and AUC0-∞. […] The number and percentage of subjects reporting adverse events were tabulated by COSTART term and body system. Laboratory values outside the reference ranges were flagged and evaluated for clinical significance.

[2] = tested on: serum and urine pharmacodynamic markers; experiment: Serum and urine pharmacodynamic markers, moderate to severe renal impairment (Example 4)
Protocol: Blood samples for paricalcitol assay were collected by venipuncture into 7 mL evacuated EDTA-containing collection tubes within 5 minutes prior to dosing (0 hour) and at 0.5, 1, 2, 3, 4, 6, 8, 12, 24, 36, and 48 hours after dosing on Study Days 1 and 8. Sufficient blood was collected to provide approximately 2.5 mL plasma from each sample. In addition, urine was collected for 48 hours following Study Day 1 dosing. Serum and urine pharmacodynamic markers, were measured at selected time points in the study. Also, a 24 hr urine amount of urine pharmacodynamic markers were measured following paricalcitol dose on Study Days 1 and 8.
Pharmacodynamic: Serum pharmacodynamic markers [serum calcium, calcium-phosphorus product (Ca×P), serum phosphorus, serum bone specific alkaline phosphatase (AP), serum osteocalcin, serum C-terminal telopeptide of collagen (CTx), serum tartarate resistant acid phosphatase-type 5b (TRAP-5b), intact (iPTH) and whole PTH] were measured from samples collected immediately prior to dosing on Study Days 1, 3, 5, and 8. One additional sample was collected 48 hours following the Study Day 8 dose (on the morning of Study Day 10). Urine pharmacodynamic markers [calcium, creatinine and deoxy-pyridinoline (DPD)] were measured from samples collected immediately prior to dosing on Study Days 1 and 8, and during the intervals 0 to 4, 4 to 8, 8 to 12, and 12 to 24 hours after dosing on Study Days 1 and 8. In addition, these markers were measured using the first morning void sample on Study Days 3, 5, and 10.
Pharmacodynamic: Two-sample t-tests were performed to compare baseline pharmacodynamic marker values between the two renal impairment groups. For improving the normality of the distribution of the baseline values, natural logarithm transformations were made to all the pharmacodynamic markers except for the urine calcium and urine creatinine. The relationship between the % change from Study Day 1 to Study Day 10 and the Study Day 1 paricalcitol AUC0-∞ was investigated using linear regression. The Study Day 1 AUC0-∞ and the corresponding baseline value were independent variables. A one-sample t-test was performed for each group on the change from Study Day 1 to Study Day 8 in 24-hour amount of urine calcium and creatinine.

[3] = tested on: serum parathyroid hormone (PTH) levels; experiment: Phase 3 placebo-controlled once daily study, iPTH reduction (Example 8); type: in vivo, human
From the text: Methodology: This was a Phase 3, prospective, randomized, placebo-controlled, double-blind, 24-week Treatment Phase, multi-center study in CKD (Stages 3 and 4) subjects with elevated PTH levels (≧150 pg/mL). Subjects were randomized in an equal ratio (1:1) to 1 of 2 treatment groups: Paricalcitol capsule (Group 1) and placebo (Group 2). Potential subjects underwent procedures to determine their baseline intact PTH (iPTH), calcium, and phosphorus levels for eligibility to receive treatment.
During the Treatment Phase, subjects were to self-administer study drug once daily for a total of 24 weeks. The initial dose was 1 or 2 mcg (depending on baseline iPTH levels). Procedures to be performed during the Treatment Phase included vital signs, chemistry and hematology, urinary pyridinoline, urinary deoxypyridinoline, serum bone-specific alkaline phosphatase, serum osteocalcin, urinalysis, spot urine for calcium/creatinine ratio, and recording of adverse events and concurrent medications. Serum iPTH, calcium, phosphorus, and albumin were measured every 2 weeks. Dose adjustments were to be made according to these chemistry results for iPTH, calcium, and phosphorus. Doses may have been increased in 1 mcg increments every 4 weeks. Dose reductions were to occur according to a protocol-specified algorithm. However, dosing could have been adjusted any time if, in the judgment of the Investigator, a risk to subject safety existed.
Efficacy: The primary efficacy endpoint was the achievement of 2 consecutive >30% decreases from baseline iPTH levels.
The secondary efficacy analyses include change and percent change from baseline analyses in iPTH and change from baseline analyses in biochemical bone activity markers.
The Intent-To-Treat population (Full Analysis Set) was defined as all randomized subjects with a baseline iPTH and at least 2 on-treatment iPTH measurements. This population was used in the primary efficacy analysis.

[4] = moderate and severe renal impairment groups, supra-pharmacologic fixed doses, 1-week study
[5] = moderate renal impairment, Study Day 1
[6] = moderate renal impairment, Study Day 8
[7] = severe renal impairment, Study Day 1
[8] = severe renal impairment, Study Day 8

C[C@H](/C=C/[C@H](C)C(C)(C)O)[C@H]1CC[C@H]2/C(=C/C=C3C[C@@H](O)C[C@H](O)C3)CCC[C@]12C [Paricalcitol, 19-nor-1α,3β,25-trihydroxy-9,10-secoergosta-5(Z); 7(E),22(E)-triene]
half-life ([1]; following intravenous administration): ~15 h
half-life ([1]; following oral administration): ~18 h
bioavailability ([1]; single oral dose of capsule formulation, end-stage renal disease on CPD, read-out: absolute bioavailability): 86.1%
PTH levels [2, 4]: significant decrease
calcium, phosphorus, Ca×P levels [2, 4]: increases
Ca/Creatinine, urine over 24 hours after dose [2, 5]: 0.045 ± 0.051
Calcium, total amount excreted in urine over 24 hours after dose [2, 5]: 49.39 ± 56.85 mg
Creatinine, total amount excreted in urine over 24 hours after dose [2, 5]: 1326.7 ± 566.1 mg
DPD, total amount excreted in urine over 24 hours after dose [2, 5]: 52.03 ± 18.96 nmol
Ca/Creatinine, urine over 24 hours after dose [2, 6]: 0.074 ± 0.078
Calcium, total amount excreted in urine over 24 hours after dose [2, 6]: 79.24 ± 63.27 mg
Creatinine, total amount excreted in urine over 24 hours after dose [2, 6]: 1324.4 ± 402.0 mg
DPD, total amount excreted in urine over 24 hours after dose [2, 6]: 58.60 ± 16.45 nmol
24-hour urinary excretion of calcium ([2]; repeated dosing): does not affect
Ca/Creatinine, urine over 24 hours after dose [2, 7]: 0.028 ± 0.019
Calcium, total amount excreted in urine over 24 hours after dose [2, 7]: 29.18 ± 20.97 mg
Creatinine, total amount excreted in urine over 24 hours after dose [2, 7]: 1088.3 ± 278.6 mg
DPD, total amount excreted in urine over 24 hours after dose [2, 7]: 48.34 ± 21.04 nmol
Calcium, total amount excreted in urine over 24 hours after dose [2, 8]: 50.92 ± 41.18 mg
DPD, total amount excreted in urine over 24 hours after dose [2, 8]: 47.74 ± 20.47 nmol
subjects with 4 consecutive ≧30% decreases from baseline in iPTH ([3]; 23/33, exploratory analysis): 70%
subjects with 2 consecutive ≧30% decreases from baseline in iPTH ([3]; 30/33, once daily, 24 weeks, CKD Stages 3 and 4): 91%
maximum decrease from baseline in iPTH ([3]; observed at Week 23): −52.4%
30% mean reduction in iPTH occurred by ([3]; once daily): ≤ 7 Week
mean change from baseline in iPTH at the Final Visit ([3]; once daily, 24 weeks): -46.9 pg/mL
mean change from baseline in iPTH at the Last On-Treatment Visit ([3]; once daily, 24 weeks): -130.8 pg/mL
percent decrease in iPTH at the Final Visit ([3]; once daily, 24 weeks): 15.2%
percent decrease in iPTH at the Last On-Treatment Visit ([3]; once daily, 24 weeks): 50.0%
